# Tested on: BR+ cancer cell lines (MX-1, MCF-7, ID8, L1210FR)
# Assay: MTT cytotoxicity, 72 h, summarised over the four BR+ cancer cell lines
# Assay type: cell-based
# Conditions: Table 1 entries 1 and 2
substance,measurement,value
SB-T-1214 [taxoid 1],Cytotoxicity relative to camptothecin (times stronger),148–846 times

# — publication PMC4096217 (Journal of Medicinal Chemistry, 2014)
